These results are taken from patent publication US20260027068A1, “METHODS OF ADM[…]-KETAMINE” (Perception Neuroscience, Inc., priority 2022, published 2026).

The structures appear in SMILES notation.

For series [1], the target named is T1, CYP2B6 (Homo sapiens, UniProt P20813).
T1 sequence (P20813 1-491): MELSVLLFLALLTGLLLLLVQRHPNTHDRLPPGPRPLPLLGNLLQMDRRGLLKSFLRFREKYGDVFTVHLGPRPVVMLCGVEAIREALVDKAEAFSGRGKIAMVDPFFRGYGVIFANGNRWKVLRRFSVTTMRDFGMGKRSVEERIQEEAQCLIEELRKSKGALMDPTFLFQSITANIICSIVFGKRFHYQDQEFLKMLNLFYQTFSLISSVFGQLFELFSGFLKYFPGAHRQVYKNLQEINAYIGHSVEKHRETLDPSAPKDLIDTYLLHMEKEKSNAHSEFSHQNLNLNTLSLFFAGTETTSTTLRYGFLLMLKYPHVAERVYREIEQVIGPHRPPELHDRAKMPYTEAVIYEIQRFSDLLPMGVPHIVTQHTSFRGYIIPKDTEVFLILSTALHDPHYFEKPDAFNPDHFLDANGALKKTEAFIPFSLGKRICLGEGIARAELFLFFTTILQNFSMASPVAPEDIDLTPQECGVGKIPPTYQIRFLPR
The settings on record: in vitro.

The test system of series [2] is CYP2B6. As to conditions: in vitro.
For series [3], the system named is sigma receptor. As to conditions: cited from earlier work.
Series [4] has as its system rodents. As to conditions: 10 mg/kg; cited from earlier work.
The subject of series [5] is CYP1A2. The experiment in a line: In vitro CYP induction.

As to `CN[C@@]1(c2ccccc2Cl)CCCCC1=O.Cl` [R(−)-ketamine, (2R)-2-(2-chlorophenyl)-2-(methylamino)cyclohexan-1-one], the CYP2B6 inhibition result in series [1] is on record as “inhibitor”. In addition, the CYP2B6 induction result in series [2] is reported as “inducer”. Also, in series [3], the “Higher affinity to the sigma receptor compared with S(+)-ketamine” value is 15 fold. Further, the “Antidepressant effect compared with S(+)-ketamine” value in series [4] was “longer acting and more potent effects than S(+)-ketamine”. Also, the CYP1A2 induction entry in series [5] was “inducer”.
